Results: patent US4068074A, “Cephalosporin derivatives having at the 3-position of the cephem ring a heterocyclic thiomethyl group with a carboxy or sulfo group and at the 7-position of the cephem ring an α-heterocylic acylaminophenyl-acetamide group” (priority 1974, dated 1978)
Values after ≈ are worked out from the molar mass of the structure shown. Like-named read-outs stand apart in the source and are kept apart here.

Tests used:
Format in all cases: cell-based
Proteus vulgaris OXK US = assay: MIC against bacteria (Table I), strain (1)
Source text: (§1) Now, for illustrating the excellent pharmacological effects of the compounds of this invention, the values of MIC (γ/ml.) of the compounds against various bacteria are shown in Table 1, in which the compounds of this invention used are shown by example numbers.
(1) Proteus vulgaris OXK US

Proteus vulgaris 0X 19US = assay: MIC against bacteria (Table I), strain (2); details: 0X19US
Source text: as §1
(2) Proteus vulgaris 0X 19US

[1] = tested on: Pseudomonas aeruginosa ATCC 8689; assay: MIC against bacteria (Table I), strain (4); details: ATCC8689; (4) Pseudomonas aeruginosa ATCC 8689; read-out: MIC
Source text: as §1
(4) Pseudomonas aeruginosa ATCC 8689

[2] = tested on: Escherichia coli kauffmann 0-1; assay: MIC against bacteria (Table I), strain (7)
Source text: as §1
(7) Escherichia coli kauffmann 0-1

[3] = tested on: Klebsiella pneumoniae ATCC 10031; assay: MIC against bacteria (Table I), strain (8); details: ATCC10031
Source text: as §1
(8) Klebsiella pneumoniae ATCC 10031

Salmonella typhi H901 W = assay: MIC against bacteria (Table I), strain (9); details: Salmonella enterica, TYPHI
Source text: as §1
(9) Salmonella typhi H901 W

Salmonella enteritidis = assay: MIC against bacteria (Table I), strain (10); details: Salmonella enterica
Source text: as §1
(10) Salmonella enteritidis

[4] = tested on: Shigella flexneri 2a 1675; assay: MIC against bacteria (Table I), strain (11); details: 2A1675
Source text: as §1

Shigella sonnei II 37148 = assay: MIC against bacteria (Table I), strain (12); details: II37148
Source text: as §1

[5] = tested on: Bacillus megatherium 10778; assay: MIC against bacteria (Table I), strain (13)
Source text: as §1

[6] = tested on: Bacillus subtilis ATCC 6633; assay: MIC against bacteria (Table I), strain (14); details: ATCC6633
Source text: as §1
(14) Bacillus subtilis ATCC 6633

[7] = tested on: Micrococcus flavus ATCC 10240; assay: MIC against bacteria (Table I), strain (15); details: ATCC10240
Source text: as §1
(15) Micrococcus flavus ATCC 10240

[8] = tested on: Staphylococcus aureus 209P; assay: MIC against bacteria (Table I), strain (16)
Source text: as §1
(16) Staphylococcus aureus 209P

[9] = tested on: Staphylococcus Shimanishi; assay: MIC against bacteria (Table I), strain (17)
Source text: as §1
(17) Staphylococcus Shimanishi

Staphylococcus Onuma = assay: MIC against bacteria (Table I), strain (18)
Source text: as §1
(18) Staphylococcus Onuma

[10] = tested on: Proteus mirabilis IXM OM-19; assay: MIC against bacteria (Table I), strain (3); details: IXMOM19; (3) Proteus mirabilis IXM OM-19; read-out: MIC
Source text: as §1
(3) Proteus mirabilis IXM OM-19

[11] = tested on: Pseudomonas aeruginosa 99 (Gentamycin resistant); assay: MIC against bacteria (Table I), strain (5)
Source text: as §1
(5) Pseudomonas aeruginosa 99 (Gentamycin resistant)

[12] = tested on: Psuedomonas ovalis IMA 1002; assay: MIC against bacteria (Table I), strain (6)
Source text: as §1
(6) Psuedomonas ovalis IMA 1002

[13] = (8) Klebsiella pneumoniae ATCC 10031, read-out: MIC
[14] = (11) Shigella flexneri 2a 1675, read-out: MIC
[15] = (12) Shigella sonnei II 37148, read-out: MIC
[16] = (1) Proteus vulgaris OXK US, read-out: MIC
[17] = (2) Proteus vulgaris 0X 19US, read-out: MIC
[18] = (6) Psuedomonas ovalis IMA 1002, read-out: MIC
[19] = (10) Salmonella enteritidis, read-out: MIC
[20] = (13) Bacillus megatherium 10778, read-out: MIC
[21] = (14) Bacillus subtilis ATCC 6633, read-out: MIC
[22] = (15) Micrococcus flavus ATCC 10240, read-out: MIC
[23] = (16) Staphylococcus aureus 209P, read-out: MIC
[24] = (17) Staphylococcus Shimanishi, read-out: MIC
[25] = (18) Staphylococcus Onuma, read-out: MIC
[26] = (5) Pseudomonas aeruginosa 99 (Gentamycin resistant), read-out: MIC

Structure (SMILES): CC1=C(C(=O)O)N2C(=O)[C@@H](NC(=O)[C@H](N)c3ccccc3)[C@H]2SC1 [Cephalexin, reference compound]
- MIC (Proteus vulgaris OXK US; Proteus vulgaris): 30 µg/mL (≈ 86.4 µM)
- MIC (Proteus vulgaris 0X 19US; Proteus vulgaris): 30 µg/mL (≈ 86.4 µM)
- MIC [1]: > 100 µg/mL
- MIC ([2]; Escherichia coli): 10 µg/mL (≈ 28.8 µM)
- MIC [3, 13]: 3 µg/mL (≈ 8.64 µM)
- MIC (Salmonella typhi H901 W): 6.25 µg/mL (≈ 18 µM)
- MIC (Salmonella enteritidis; ENTERITIDIS): 6.25 µg/mL (≈ 18 µM)
- MIC [4, 14]: 6.25 µg/mL (≈ 18 µM)
- MIC (Shigella sonnei II 37148; [15]): 6.25 µg/mL (≈ 18 µM)
- MIC ([5]; Bacillus, 10778): 0.78 µg/mL (≈ 2.25 µM)
- MIC ([6]; Bacillus subtilis): 0.78 µg/mL (≈ 2.25 µM)
- MIC ([7]; Micrococcus flavus): 1.56 µg/mL (≈ 4.49 µM)
- MIC ([8]; Staphylococcus aureus, 209P): 1.56 µg/mL (≈ 4.49 µM)
- MIC ([9]; Staphylococcus): 6.25 µg/mL (≈ 18 µM)
- MIC (Staphylococcus Onuma; Staphylococcus): 12.5 µg/mL (≈ 36 µM)

Structure (SMILES): CC(=O)OCC1=C(C(=O)O)N2C(=O)[C@@H](NC(=O)[C@H](N)c3ccccc3)[C@H]2SC1 [Cephaloglycin, reference compound]
- MIC (Proteus vulgaris OXK US; [16]): 25 µg/mL (≈ 61.7 µM)
- MIC (Proteus vulgaris 0X 19US; [17]): 100 µg/mL (≈ 247 µM)
- MIC [10]: 100 µg/mL (≈ 247 µM)
- MIC [1]: > 100 µg/mL
- MIC ([11]; Pseudomonas aeruginosa): > 100 µg/mL
- MIC [12, 18]: > 100 µg/mL
- MIC ([2]; Escherichia coli): 100 µg/mL (≈ 247 µM)
- MIC [3, 13]: 25 µg/mL (≈ 61.7 µM)
- MIC (Salmonella typhi H901 W): 3 µg/mL (≈ 7.4 µM)
- MIC (Salmonella enteritidis; [19]): 3 µg/mL (≈ 7.4 µM)
- MIC [4, 14]: 3 µg/mL (≈ 7.4 µM)
- MIC (Shigella sonnei II 37148; [15]): 10 µg/mL (≈ 24.7 µM)
- MIC [5, 20]: 1 µg/mL (≈ 2.47 µM)
- MIC [6, 21]: 0.3 µg/mL (≈ 0.74 µM)
- MIC [7, 22]: 0.3 µg/mL (≈ 0.74 µM)
- MIC [8, 23]: 1 µg/mL (≈ 2.47 µM)
- MIC [9, 24]: 3 µg/mL (≈ 7.4 µM)
- MIC (Staphylococcus Onuma; [25]): 3 µg/mL (≈ 7.4 µM)

Structure (SMILES): O=C(O)CCC(=O)Nc1nnc(SCC2=C(C(=O)O)N3C(=O)[C@@H](NC(=O)[C@H](NC(=O)c4csccc4=O)c4ccccc4)[C@H]3SC2)s1 [Example 1, 7-[D-α-(4-oxo-4H-thiopyran-3-ylcarboxamido)-α-phenylacetamido]-3-[5-(3-carboxypropionylamino)-1,3,4-thiadiazol-2-yl]thiomethyl-Δ^3-cephem-4-carboxylic acid]
- MIC (Proteus vulgaris OXK US; [16]): 0.19 µg/mL (≈ 0.265 µM)
- MIC (Proteus vulgaris 0X 19US; [17]): 0.19 µg/mL (≈ 0.265 µM)
- MIC [10]: 0.78 µg/mL (≈ 1.09 µM)
- MIC [1]: 25 µg/mL (≈ 34.9 µM)
- MIC [11, 26]: 50 µg/mL (≈ 69.8 µM)
- MIC [12, 18]: 25 µg/mL (≈ 34.9 µM)
- MIC ([2]; (7) Escherichia coli kauffmann 0-1, read-out: MIC): 25 µg/mL (≈ 34.9 µM)
- MIC ([3]; Klebsiella pneumoniae): 6.25 µg/mL (≈ 8.72 µM)
- MIC (Salmonella typhi H901 W): 1.56 µg/mL (≈ 2.18 µM)
- MIC (Salmonella enteritidis; [19]): 0.78 µg/mL (≈ 1.09 µM)
- MIC [4, 14]: 6.25 µg/mL (≈ 8.72 µM)
- MIC (Shigella sonnei II 37148; [15]): 25 µg/mL (≈ 34.9 µM)
- MIC [5, 20]: 0.78 µg/mL (≈ 1.09 µM)
- MIC [6, 21]: 0.39 µg/mL (≈ 0.544 µM)
- MIC [7, 22]: 3.13 µg/mL (≈ 4.37 µM)
- MIC [8, 23]: 0.78 µg/mL (≈ 1.09 µM)
- MIC [9, 24]: 3.13 µg/mL (≈ 4.37 µM)
- MIC (Staphylococcus Onuma; Staphylococcus): 6.25 µg/mL (≈ 8.72 µM)

Structure (SMILES): O=C(O)CCSc1nnc(SCC2=C(C(=O)O)N3C(=O)[C@@H](NC(=O)[C@H](NC(=O)c4cnccc4O)c4ccccc4)[C@H]3SC2)s1 [Example 5, 7-[D-α-(4-hydroxynicotinoylamido)-α-phenylacetamido]-3-(5-carboxyethylthio-1,3,4-thiadiazol-2-yl)-thiomethyl-Δ^3-cephem-4-carboxylic acid]
- MIC (Proteus vulgaris OXK US; [16]): < 0.09 µg/mL
- MIC (Proteus vulgaris 0X 19US; [17]): 0.19 µg/mL (≈ 0.276 µM)
- MIC [10]: 0.78 µg/mL (≈ 1.13 µM)
- MIC [1]: 12.5 µg/mL (≈ 18.1 µM)
- MIC ([11]; Pseudomonas aeruginosa): 6.25 µg/mL (≈ 9.07 µM)
- MIC [12]: 6.25 µg/mL (≈ 9.07 µM)
- MIC ([2]; Escherichia coli): 6.25 µg/mL (≈ 9.07 µM)
- MIC ([3]; Klebsiella pneumoniae): 6.25 µg/mL (≈ 9.07 µM)
- MIC (Salmonella typhi H901 W): 1.56 µg/mL (≈ 2.26 µM)
- MIC (Salmonella enteritidis; [19]): 0.39 µg/mL (≈ 0.566 µM)
- MIC [4, 14]: 1.56 µg/mL (≈ 2.26 µM)
- MIC (Shigella sonnei II 37148; [15]): 6.25 µg/mL (≈ 9.07 µM)
- MIC [5, 20]: 0.78 µg/mL (≈ 1.13 µM)
- MIC [6, 21]: 0.39 µg/mL (≈ 0.566 µM)
- MIC [7, 22]: 3.13 µg/mL (≈ 4.54 µM)
- MIC ([8]; Staphylococcus aureus, 209P): 1.56 µg/mL (≈ 2.26 µM)
- MIC ([9]; Staphylococcus): 6.25 µg/mL (≈ 9.07 µM)
- MIC (Staphylococcus Onuma; Staphylococcus): 6.25 µg/mL (≈ 9.07 µM)

Structure (SMILES): O=C(O)CSc1nnc(SCC2=C(C(=O)O)N3C(=O)[C@@H](NC(=O)[C@H](NC(=O)c4csccc4=O)c4ccccc4)[C@H]3SC2)s1 [Example 10]
- MIC (Proteus vulgaris OXK US; [16]): < 0.09 µg/mL
- MIC (Proteus vulgaris 0X 19US; [17]): < 0.09 µg/mL
- MIC [10]: 0.39 µg/mL (≈ 0.564 µM)
- MIC [1]: 25 µg/mL (≈ 36.1 µM)
- MIC [11, 26]: 50 µg/mL (≈ 72.3 µM)
- MIC [12, 18]: 50 µg/mL (≈ 72.3 µM)
- MIC ([2]; Escherichia coli): 6.25 µg/mL (≈ 9.03 µM)
- MIC [3, 13]: 3.13 µg/mL (≈ 4.52 µM)
- MIC (Salmonella typhi H901 W): 1.56 µg/mL (≈ 2.25 µM)
- MIC (Salmonella enteritidis; [19]): 0.19 µg/mL (≈ 0.275 µM)
- MIC ([4]; Shigella flexneri): 1.56 µg/mL (≈ 2.25 µM)
- MIC (Shigella sonnei II 37148; Shigella sonnei): 6.25 µg/mL (≈ 9.03 µM)
- MIC [5, 20]: 0.39 µg/mL (≈ 0.564 µM)
- MIC [6, 21]: 0.19 µg/mL (≈ 0.275 µM)
- MIC [7, 22]: 3.13 µg/mL (≈ 4.52 µM)
- MIC [8, 23]: 0.39 µg/mL (≈ 0.564 µM)
- MIC [9, 24]: 3.13 µg/mL (≈ 4.52 µM)
- MIC (Staphylococcus Onuma; [25]): 3.13 µg/mL (≈ 4.52 µM)
